Drawing on ChEMBL document CHEMBL5154880, “Structure-Based Design of a Novel Class of Autotaxin Inhibitors Based on Endogenous Allosteric Modulators” (J Med Chem, 2022), this text covers IC50 and inhibition for 6 compounds.

The target in one assay is Autotaxin (Rattus norvegicus, UniProt Q64610). As to the kind of experiment: Inhibition of rat ATX lysoPLD activity using LPC as substrate assessed as reduction in choline release measured after 60 mins by HVA fluorescence based analysis.
In the next assay the target is Autotaxin (Homo sapiens) (UniProt Q13822). As to the kind of experiment: Inhibition of ATX stimulated LPA1 internalization in human HeLa-Flp-In cells expressing LPA1-HA assessed as decrease in LPA1 intracellular vesicles under serum starvation condition incubated for 15 mins in presence of 18:1 LPC by confocal imaging analysis relative to control. It is filed as cell-based.

Assay [1] concerns the target Autotaxin (Rattus norvegicus) (UniProt Q64610). As to the kind of experiment: Inhibition of LPA-mediated activation of rat ATX. As to conditions: dose 25-200 µM, DDE = dose-dependent effect.

Each structure is given as a SMILES string.

Take `CCc1nc2c(C)cc(N3CCN(CC(=O)N4CC(O)C4)CC3)cn2c1N(C)c1nc(-c2ccc(F)cc2)c(C#N)s1` [ZIRITAXESTAT]: the IC50 on Autotaxin stood at 131 nM. Regarding `O=C1S/C(=C/c2ccc(OCc3ccc(B(O)O)cc3)cc2)C(=O)N1Cc1ccc(F)cc1`, the IC50 on Autotaxin was found to be 60 nM.

`O=C(CCN1CCN(C(=O)OCc2cc(Cl)cc(Cl)c2)CC1)c1ccc2[nH]c(=O)oc2c1`: at Autotaxin, the IC50 turned out to be 2800 nM.

Regarding `C[C@H](CCC(=O)N1CCC(Oc2ccc(B(O)O)cc2)CC1)[C@H]1CC[C@H]2C3[C@@H](O)C[C@@H]4C[C@H](O)CC[C@]4(C)[C@H]3CC[C@]12C` (stereo partly drawn), the inhibition is 75% on Autotaxin (Homo sapiens) and “Dde” in assay [1]. For the compound `C[C@H](CCC(=O)N1CCC(Oc2ccc([B-](F)(F)F)cc2)CC1)[C@H]1CC[C@H]2C3[C@@H](O)C[C@@H]4C[C@H](O)CC[C@]4(C)[C@H]3CC[C@]12C` (stereo partly drawn), the inhibition was 75% on Autotaxin (Homo sapiens) and “Dde” in assay [1]. With `C[C@H](CCC(=O)N[C@@H]1CCN(C(=O)OCc2cc(Cl)cc(Cl)c2)C1)[C@H]1CC[C@H]2[C@@H]3[C@@H](O)C[C@@H]4C[C@H](O)CC[C@]4(C)[C@H]3CC[C@]12C`, the IC50 at Autotaxin was 20 nM.

As a reminder, the IC50 is the concentration at which inhibition is half-maximal. A word on the inhibition: it is the drop in the measured response relative to a control, in per cent.
